Read-outs that look alike come from different tables or passages of the source.
Key:
[1] = physchem; type: physicochemical
Text: The assays would allow a formation of isopilocarpine or isopilocarpic acid of 1% to be detected.

[2] = Apparent partition coefficient 1-octanol/phosphate buffer pH 7.4; type: physicochemical; conditions: for log P: pH 7.4
[3] = pKa, solubility and other physicochemical properties; conditions: in words
[4] = system: eyes of the rabbits; test: Ophthalmic pupillary diameter or miosis study; type: in vivo, male albino rabbits; conditions: for duration of miotic effect compared with pilocarpine / overall miotic effect compared with pilocarpine: 25 μl topical, pH 4.5, FIG. 3, in words; for duration of miotic activity of the di-esters: FIG. 5, 0.5% pilocarpine nitrate equivalent
Protocol: Twenty-five microliter volumes of each solution were administered by topical ophthalmic instillation to male albino rabbits, and pupillary diameter changes or miotic activities in the eyes of the rabbits were recorded as a function of time, and were compared. A detailed description of the procedure for the miosis study is given in Mitra & Mikkelson (1982) and references cited therein. […] Thus, the miotic activity observed after administration of a solution of O-benzoyl pilocarpic acid 4-methylbenzyl ester lasted for 4.5 hours as shown in FIG. 4. The equivalent concentrations and pH were the same as in the above experiment.
The compounds are: 4-methylbenzyl pilocarpic acid ester, O-benzoyl pilocarpic acid 4-methylbenzyl ester, and O-acetyl pilocarpic acid 4-methylbenzyl ester. In each of these three derivatives the R1 -substituent is the 4-methylbenzyloxy group. […] Duration of the activity of the di-esters is seen to be approximately 4.5 hours.
In FIG. 6 the compounds are the O-benzoyl 4-chlorobenzyl, the O-phenylacetyl benzyl, and the O-3-chlorobenzoyl benzyl pilocarpic acid esters. In FIG. 7 the compounds are the O-benzoyl benzyl, the O-butyryl 4-methylbenzyl and the O-nicotionyl benzyl pilocarpic acid esters. […] Again, the extended duration is apparent. Thus, even though the dosage level is less than in the previous experiments, the miotic effect is apparent for up to 4.5 hours after administration.

[5] = Degradation of O-acyl pilocarpic acid esters and formation of pilocarpine in 75% human plasma; type: in vitro ADME; conditions: for half-life: 75% plasma
Text: ^b In 75% human plasma (pH 7.4) the 4methylbenzyl ester of pilocarpic
O--acyl esters as determined by HPLC.

[6] = Shelf-life / stability of aqueous solutions; type: physicochemical
Protocol: At such pH values the stability is much increased as compared with that at neutral and basic pH values. […] At these pH values solutions of the compound were predicted to have shelf-lives in excess of 8 years at 25° C. and 20 years at 20° C. as determined on the basis of temperature-accelerated kinetic stability studies.

[7] = Hydrolysis/stability of O-acyl pilocarpic acid esters in plasma-free buffer (specific base catalysis); type: physicochemical; conditions: for kOH (catalytic rate constant, specific base-catalyzed hydrolysis): 37° C., based on hydroxide ion activity; for half-life: buffer
Protocol: ^c The hydrolysis is specific basecatalyzed and the data shown were
obtained by extrapolating experimental rate constants at pH 10-12 to pH
7.4. At 20° C. the t0.5 values were 4.5 and 1.4 years, […]

[8] = octanol/phosphate buffer, pH 7.4, Partition coefficients (P)
[9] = 0.5% pilocarpine nitrate equivalent
[10] = 75% human plasma (pH 7.4) at 37° C., in words
[11] = 75% human plasma (pH 7.4) at 37° C., read-out: half-lives of degradation in 75% human plasma
[12] = pH 7.4, 20° C., hydrolysis in buffer pH 7.4, extrapolated (Table 2 footnote c), read-out: t0.5 values at 20° C. (converted)
[13] = pH 7.4, 37° C., extrapolated from rate constants at pH 10-12 to pH 7.4, read-out: t0.5 of hydrolysis to pilocarpic acid 4-methylbenzyl ester, pH 7.4 buffer (converted)
[14] = octanol/buffer, pH 7.4, di-esters (Table 3), read-out: log P octanol/buffer pH 7.4
[15] = octanol/phosphate buffer, pH 7.4, octanol / 0.05 M phosphate buffer pH 7.40, O-acyl derivatives of pilocarpic acid 4-methylbenzyl ester (Table 2), read-out: Partition coefficients (P) (converted)
[16] = human, pH 7.4, 37° C., di-esters (Table 3), read-out: t0.5 human plasma (75%)
[17] = 25 μl of 0.25% (pilocarpine nitrate equivalent), FIGS. 6 and 7

SMILES: CCCCOC(=O)[C@@H](CC)[C@H](CO)Cc1cncn1C [Example 2, Pilocarpic Acid Butyl Ester]
- half-life ([1]; buffer, pH 7.4): 820 min
- logD [2, 8]: 1.58

SMILES: CC[C@H](C(=O)OCc1ccccc1)[C@H](CO)Cc1cncn1C [Example 3, Pilocarpic Acid Benzyl Ester]
- half-life ([1]; buffer, pH 7.4): 50 min
- logD [2, 8]: 1.82
- hygroscopicity [3]: hygroscopic
- duration of miotic effect compared with pilocarpine [4, 9]: most significantly and dramatically longer
- overall miotic effect compared with pilocarpine [4, 9]: significantly greater in their overall effect

SMILES: CC[C@H](C(=O)OCc1ccc(Cl)cc1)[C@H](CO)Cc1cncn1C [Example 4, Pilocarpic Acid 4-Chlorobenzyl Ester]
- half-life ([1]; buffer, pH 7.4): 30 min
- logD [2, 8]: 2.54
- duration of miotic effect compared with pilocarpine [4, 9]: most significantly and dramatically longer
- overall miotic effect compared with pilocarpine [4, 9]: significantly greater in their overall effect

SMILES: CC[C@H](C(=O)OCc1ccc(C)cc1)[C@H](CO)Cc1cncn1C [Example 5, Pilocarpic Acid 4-Methylbenzyl Ester]
- half-life ([1]; buffer, pH 7.4): 77 min
- half-life ([1]; plasma-free buffer): 77 min
- extent of cyclization to pilocarpine in plasma [5, 10]: cyclized quantitatively to pilocarpine
- half-life ([5]; 75% human plasma (pH 7.4) at 37° C., after formation from the O-acyl esters): 83 min
- logD [2, 8]: 2.31
- shelf-life (time for 10% decomposition) at 4° C. ([6]; aqueous solution pH 4.0, 4° C.): 3.8 years
- shelf-life (time for 10% decomposition) at 20° C. ([6]; aqueous solution pH 4.0, 20° C.): about 1.5 years
- duration of miotic effect compared with pilocarpine [4, 9]: most significantly and dramatically longer
- overall miotic effect compared with pilocarpine [4, 9]: significantly greater in their overall effect

SMILES: CC[C@H](C(=O)OCc1ccccc1C)[C@H](CO)Cc1cncn1C [Example 6, Pilocarpic Acid 2-Methylbenzyl Ester]
- logD [2, 8]: 2.27

SMILES: CC[C@H](C(=O)OCCc1ccccc1)[C@H](CO)Cc1cncn1C [Example 9, Pilocarpic Acid 2-Phenylethyl Ester]
- log P ([2]; octanol/phosphate buffer): 2.16
- logD [2, 8]: 2.16

SMILES: CC[C@H](C(=O)OCc1ccc(C)cc1)[C@H](COC(=O)c1ccccc1)Cc1cncn1C [Example 11, O-Benzoyl Pilocarpic Acid 4-Methylbenzyl Ester]
- yield of pilocarpic acid 4-methylbenzyl ester formed in plasma [5, 10]: quantitative amounts
- sum of the concentrations of O-benzoyl di-ester, intermediate ester and pilocarpine at any time ([5]; 75% human plasma, FIG. 2): 100±3%
- half-life [5, 11]: 16 min
- kOH (catalytic rate constant, specific base-catalyzed hydrolysis) [7]: 4.0 M⁻¹ min⁻¹
- half-life [7, 12]: 1640 days
- half-life [7, 13]: 200 days
- logD [2, 14]: 4.7
- logD [2, 15]: 4.7
- duration of miotic activity ([4]; 25 μl, 0.5% pilocarpine nitrate equivalent, FIG. 4): 4.5 h
- bioavailability relative to pilocarpine ([4]; FIG. 4, 0.5% pilocarpine nitrate equivalent): approximately 4 fold
- duration of miotic activity of the di-esters [4]: approximately 4.5 hours

SMILES: CC[C@H](C(=O)OCc1ccc(C)cc1)[C@H](COC(C)=O)Cc1cncn1C [Example 12, O-Acetyl Pilocarpic Acid 4-Methylbenzyl Ester]
- yield of pilocarpic acid 4-methylbenzyl ester formed in plasma [5, 10]: quantitative amounts
- half-life [5, 11]: 24 min
- kOH (catalytic rate constant, specific base-catalyzed hydrolysis) [7]: 12.6 M⁻¹ min⁻¹
- half-life [7, 12]: 511 days
- half-life [7, 13]: 62.5 days
- logD [2, 14]: 3.16
- logD ([2]; octanol/phosphate buffer, pH 7.4, octanol / 0.05 M phosphate buffer pH 7.40 (Table 2), read-out: log P): 3.16
- logD [2, 15]: 3.16
- duration of miotic activity of the di-esters [4]: approximately 4.5 hours

SMILES: CC[C@H](C(=O)OC(C)c1ccccc1)[C@H](CO)Cc1cncn1C (some centres unmarked) [Example 13, Pilocarpic Acid 1-Phenylethyl Ester]
- log P ([2]; octanol/phosphate buffer): 2.08
- logD [2, 8]: 2.08

SMILES: CC[C@H](C(=O)OCc1ccccc1)[C@H](COC(=O)c1ccccc1)Cc1cncn1C [Example 14, O-Benzoyl Pilocarpic Acid Benzyl Ester]
- half-life [5, 16]: 12 min
- kOH (catalytic rate constant, specific base-catalyzed hydrolysis) [7]: 3.8 M⁻¹ min⁻¹
- logD [2, 14]: 4.22
- predicted shelf-life at 20° C. ([6]; aqueous solution pH 3-5, 20° C., temperature-accelerated kinetic stability studies): > 20 years
- predicted shelf-life at 25° C. ([6]; aqueous solution pH 3-5, 25° C., temperature-accelerated kinetic stability studies): > 8 years
- pH region of maximum stability ([6]; aqueous solutions): 3-5 pH
- time for which miotic effect is apparent [4, 17]: up to 4.5 hours

SMILES: CC[C@H](C(=O)OCc1ccc(Cl)cc1)[C@H](COC(=O)c1ccccc1)Cc1cncn1C [Example 15, O-Benzoyl Pilocarpic Acid 4-Chlorobenzyl Ester]
- half-life [5, 16]: 17 min
- kOH (catalytic rate constant, specific base-catalyzed hydrolysis) [7]: 3.4 M⁻¹ min⁻¹
- logD [2, 14]: 4.75
- time for which miotic effect is apparent ([4]; 25 μl of 0.125% (pilocarpine nitrate equivalent), FIG. 6): up to 4.5 hours

SMILES: CC[C@H](C(=O)OCCc1ccccc1)[C@H](COC(=O)c1ccccc1)Cc1cncn1C [Example 16, O-Benzoyl Pilocarpic Acid 2-Phenylethyl Ester]
- half-life [5, 16]: 15 min
- kOH (catalytic rate constant, specific base-catalyzed hydrolysis) [7]: 3.8 M⁻¹ min⁻¹
- logD [2, 14]: 4.6

SMILES: CC[C@H](C(=O)OCc1ccccc1)[C@H](COC(=O)c1cccc(Cl)c1)Cc1cncn1C [Example 17, O-3-Chlorobenzoyl Pilocarpic Acid Benzyl Ester]
- half-life [5, 16]: 25 min
- kOH (catalytic rate constant, specific base-catalyzed hydrolysis) [7]: 14.6 M⁻¹ min⁻¹
- logD [2, 14]: 4.93
- time for which miotic effect is apparent [4, 17]: up to 4.5 hours

SMILES: CCCC(=O)OCC(Cc1cncn1C)C(CC)C(=O)OCc1ccc(C)cc1 (centres unmarked) [Example 18, O-Butyryl Pilocarpic Acid 4-Methylbenzyl Ester]
- half-life [5, 16]: 15 min
- kOH (catalytic rate constant, specific base-catalyzed hydrolysis) [7]: 3.5 M⁻¹ min⁻¹
- logD [2, 14]: 4.09
- time for which miotic effect is apparent [4, 17]: up to 4.5 hours

SMILES: CC[C@H](C(=O)OCc1ccccc1)[C@H](COC(=O)Cc1ccccc1)Cc1cncn1C [Example 19, O-Phenylacetyl Pilocarpic Acid Benzyl Ester]
- half-life [5, 16]: 4 min
- kOH (catalytic rate constant, specific base-catalyzed hydrolysis) [7]: 21.7 M⁻¹ min⁻¹
- logD [2, 14]: 3.85
- time for which miotic effect is apparent [4, 17]: up to 4.5 hours

SMILES: CC[C@H](C(=O)OCc1ccccc1)[C@H](COC(=O)c1cccnc1)Cc1cncn1C [Example 20, O-Nicotinoyl Pilocarpic Acid Benzyl Ester]
- half-life [5, 16]: 6 min
- kOH (catalytic rate constant, specific base-catalyzed hydrolysis) [7]: 44.4 M⁻¹ min⁻¹
- logD [2, 14]: 2.9
- time for which miotic effect is apparent [4, 17]: up to 4.5 hours

SMILES: CC[C@@H]1C(=O)OC[C@@H]1Cc1cncn1C [Pilocarpine, reference compound]
- water solubility of pilocarpine ([3]; free base form and various salts): extremely water-soluble
- shelf life in aqueous solutions ([6]; pilocarpine, pH 6.4 and 20° C.): less than 1 year

Source: patent US4742073A (priority 1982, dated 1988)
